Reference: US8852554B2, “Radiolabelled PDE10 ligands” (Janssen Pharmaceutica NV, priority 2009, dated 2014)
Structures can show the parent of a compound that is named as a salt.

Columns and labels:
[1] = target: T1, Rat recombinant PDE10A (rPDE10A) (Rattus norvegicus, UniProt Q9QYJ6); assay: rat PDE10A2-cAMP inhibition, in vitro SPA assay; type: biochemical; settings: 60 nM cAMP substrate
T1 construct: made in house; host or cells: Sf9 insect cells (baculovirus)
T1 sequence (Q9QYJ6 1-794): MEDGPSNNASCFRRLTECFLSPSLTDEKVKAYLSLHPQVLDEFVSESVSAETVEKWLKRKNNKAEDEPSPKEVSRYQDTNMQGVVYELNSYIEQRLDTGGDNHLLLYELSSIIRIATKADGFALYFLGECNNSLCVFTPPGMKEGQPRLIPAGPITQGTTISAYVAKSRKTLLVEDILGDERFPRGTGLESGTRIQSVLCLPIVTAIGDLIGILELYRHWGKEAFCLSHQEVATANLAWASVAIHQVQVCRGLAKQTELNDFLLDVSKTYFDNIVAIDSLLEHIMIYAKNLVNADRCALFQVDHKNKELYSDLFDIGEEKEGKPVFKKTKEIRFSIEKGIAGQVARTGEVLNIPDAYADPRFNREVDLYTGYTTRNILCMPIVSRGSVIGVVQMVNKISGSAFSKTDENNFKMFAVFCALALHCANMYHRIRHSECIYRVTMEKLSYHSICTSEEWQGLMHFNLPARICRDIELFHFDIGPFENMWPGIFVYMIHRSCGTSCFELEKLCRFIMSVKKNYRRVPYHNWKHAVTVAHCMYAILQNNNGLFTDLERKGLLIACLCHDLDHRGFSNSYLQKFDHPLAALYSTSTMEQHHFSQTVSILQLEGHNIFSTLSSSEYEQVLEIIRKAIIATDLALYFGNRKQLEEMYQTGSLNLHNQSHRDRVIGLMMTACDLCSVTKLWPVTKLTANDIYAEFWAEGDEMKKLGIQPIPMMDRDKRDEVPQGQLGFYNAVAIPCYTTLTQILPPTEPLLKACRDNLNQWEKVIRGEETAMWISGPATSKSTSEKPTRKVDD
Procedure: Rat recombinant PDE10A (rPDE10A) was expressed in Sf9 cells using a recombinant rPDE10A baculovirus construct. Cells were harvested after 48 h of infection and the rPDE10A protein was purified by metal chelate chromatography on Ni-sepharose 6FF. Tested compounds were dissolved and diluted in 100% DMSO to a concentration 100 fold of the final concentration in the assay. Compound dilutions (0.4 μl) were added in 384 well plates to 20 μl of incubation buffer (50 mM Tris pH 7.8, 8.3 mM MgCl2, 1.7 mM EGTA). 10 μl of rPDE10A enzyme in incubation buffer was added and the reaction was started by addition of 10 μl substrate to a final concentration of 60 nM cAMP and 0.008 μCi 3H-cAMP. The reaction was incubated for 60 minutes at room temperature. […] After sedimentation of the beads during 30 minutes, the radioactivity was measured in a Perkin Elmer Topcount scintillation counter and results were expressed as cpm. For blanc values the enzyme was omitted from the reaction and replaced by incubation buffer. Control values were obtained by addition of a final concentration of 1% DMSO instead of compound.

PDE10A = target: T2, PDE10A (Rattus norvegicus, UniProt Q9QYJ6); assay: MicroPET imaging studies; type: in vivo, male Wistar rats; settings: simplified reference tissue model, cerebellum as reference
T2 construct: from tissue; host or cells: brain (striatum) of living male Wistar rats, in vivo microPET
T2 sequence (Q9QYJ6 1-794): T1 sequence (Q9QYJ6 1-794)
Procedure: Imaging experiments were performed on a Focus™ 220 microPET scanner (Concorde Microsystems, Knoxville, Tenn., USA) using male Wistar rats with body weight varying between 300 and 600 g. […] Dynamic scans of 120 min were acquired in list mode. After reconstruction of the images, they were semi-automatically co-registered with a [^11C]raclopride template of the rat brain, and volumes of interest (VOIs) were generated for different anatomical brain structures (striatum, cerebral cortex and cerebellum) from which time-activity curves (TAC) were constructed for each individual image, using PMOD software (PMOD Technologies Ltd.). Normalization for body weight of the animal and injected dose was done. The radioactivity concentration in the different brain regions was expressed as SUV (standardized uptake value) as a function of time in seconds post injection of the radiotracer. The parametric binding potential (BP) values were calculated for all acquired images by using a simplified reference tissue model where the TAC of the cerebellum was used as input TAC for non-specific binding, using the same software (PMOD).
The radioactivity concentration in the different brain regions was expressed as SUV value as a function of time p.i. of the radiotracer by normalization for body weight of the animal and injected dose.

Compound | IC50 [1] [nM] | melting point [°C] | BP (binding potential) at baseline (PDE10A)
FCCOc1ccc(COc2ccc(-c3nn(CCF)cc3-c3ccncc3)cc2)nc1 [Compound B19, 5-(2-fluoroethoxy)-2-[[4-[1-(2-fluoroethyl)-4-(4-pyridinyl)-1H-pyrazol-3-yl]phenoxy]methyl]-pyridine] | 100 | 212.7 | 
COc1ccc(COc2ccc(-c3nn(CC(F)(F)F)cc3-c3ccncc3)cc2)nc1 [Compound B5, 5-methoxy-2-[[4-[4-(4-pyridinyl)-1-(2,2,2-trifluoroethyl)-1H-pyrazol-3-yl]phenoxy]methyl]-pyridine] | 5.13 | 136.3 | 
Cc1cnc(COc2ccc(-c3nn(CC[18F])cc3-c3ccncc3)cc2)c(C)c1 [[^18F]B-3] |  |  | 4.1
COc1ccc(Br)c(COc2ccc(-c3nn(CCF)cc3-c3ccncc3)cc2)n1 [Compound B27, 3-bromo-2-[[4-[1-(2-fluoroethyl)-4-(4-pyridinyl)-1H-pyrazol-3-yl]phenoxy]methyl]-6-methoxy-pyridine] | 28.2 | 119.2 | 
COc1cccnc1COc1ccc(-c2nn(CCCF)cc2-c2ccncc2)cc1 [Compound B12, 2-[[4-[1-(3-fluoropropyl)-4-(4-pyridinyl)-1H-pyrazol-3-yl]phenoxy]methyl]-3-methoxy-pyridine] | 13.2 | 165.9 | 
COc1cccnc1COc1ccc(-c2nn(CC(F)(F)F)cc2-c2ccncc2)cc1 [Compound B9, 3-methoxy-2-[[4-[4-(4-pyridinyl)-1-(2,2,2-trifluoroethyl)-1H-pyrazol-3-yl]phenoxy]methyl]-pyridine] | 5.13 | 147 | 
FCCCn1cc(-c2ccncc2)c(-c2ccc(OCc3ccc(OCCF)cn3)cc2)n1 [Compound B15, 5-(2-fluoroethoxy)-2-[[4-[1-(3-fluoropropyl)-4-(4-pyridinyl)-1H-pyrazol-3-yl]phenoxy]methyl]-pyridine] | 251 | 206.8 | 
FCCOc1cccnc1COc1ccc(-c2nn(CCF)cc2-c2ccncc2)cc1 (as salt: succinate) [Compound B17, 3-(2-fluoroethoxy)-2-[[4-[1-(2-fluoroethyl)-4-(4-pyridinyl)-1H-pyrazol-3-yl]phenoxy]methyl]pyridine.succinate] |  | 114.18 | 

Continued, values first:

IC50 [1] [nM] | melting point [°C] | BP (binding potential) at baseline (PDE10A) | Compound
91.2 | 133.23 |  | FCCn1cc(-c2ccncc2)c(-c2ccc(OCc3ccc(C(F)(F)F)cn3)cc2)n1 [Compound B22, 2-[[4-[1-(2-fluoroethyl)-4-(4-pyridinyl)-1H-pyrazol-3-yl]phenoxy]methyl]-5-(trifluoromethyl)-pyridine]
33.1 | 148.7 |  | N#Cc1cccc(COc2ccc(-c3nn(CCF)cc3-c3ccncc3)cc2)n1 [Compound B26, 6-[[4-[1-(2-fluoroethyl)-4-(4-pyridinyl)-1H-pyrazol-3-yl]phenoxy]methyl]-2-pyridinecarbonitrile]
3.31 | 117.52 |  | COc1ccc(COc2ccc(-c3nn(CCF)cc3-c3ccncc3)cc2)nc1 [Compound B4, 2-[[4-[1-(2-fluoroethyl)-4-(4-pyridinyl)-1H-pyrazol-3-yl]phenoxy]methyl]-5-methoxy-pyridine]
9.55 | 125.8 |  | FCCn1cc(-c2ccncc2)c(-c2ccc(OCc3ccc(Br)cn3)cc2)n1 [Compound B20, 5-bromo-2-[[4-[1-(2-fluoroethyl)-4-(4-pyridinyl)-1H-pyrazol-3-yl]phenoxy]methyl]-pyridine]
 | 113.25 |  | COc1cccc(COc2ccc(-c3nn(CCF)cc3-c3ccncc3)cc2)n1 (as salt: succinate) [Compound B24, 2-[[4-[1-(2-fluoroethyl)-4-(4-pyridinyl)-1H-pyrazol-3-yl]phenoxy]methyl]-6-methoxy-pyridine.succinate]
 | 227.22 |  | Cc1cccc(COc2ccc(-c3nn(CCF)cc3-c3ccncc3)cc2)n1 (as salt: hydrochloride) [Compound B1, 2-[[4-[1-(2-fluoroethyl)-4-(4-pyridinyl)-1H-pyrazol-3-yl]phenoxy]methyl]-6-methyl-pyridine.dihydrochloride]
